{"source": "paper PMC11500415", "about": "“Chemical inhibition of stomatal differentiation by perturbation of the master-regulatory bHLH heterodimer via an ACT-Like domain” (Nature Communications, 2024)", "key": {"[1]": {"test_system": "Commelina benghalensis stomatal opening induced by light", "assay": "Measurement of stomatal opening", "assay_type": "in vivo", "conditions": "50 µM; light 3 h (Supplementary Fig. 1)", "method": "The experiments were performed as described previously[30],[68]. Briefly, Stomidazolone or ABA were added to a multi-well plate with basal buffer [5 mM MES/bistrispropane (pH 6.5), 50 mM KCl, and 0.1 mM CaCl2] to be diluted to a final concentration of 50 or 20 µM, respectively. C. benghalensis plants were incubated in the dark overnight; then, 4 mm diameter leaf discs were excised from fully expanded leaves using a hole punch (Biopsy Punch, Kai Medical). Samples were immersed in a basal buffer containing compounds for 30 min before being exposed to light (150 µmol m^−2 s^−1 red light and 50 µmol m^−2 s^−1 blue light) for 3 h. The stomatal apertures were observed using a stereoscopic microscope (BX43; Olympus). The microscopic images were acquired with a charge-coupled device (CCD) camera (DP27; Olympus), followed by autofocus image processing using cellSens standard software (Olympus). Measurement of stomatal apertures of C. benghalensis was performed by using an automation program, DeepStomata[69]."}, "[2]": {"test_system": "Arabidopsis stomatal development mutants (spch, mute, fama, er, erl1, erl2, hdg2, atml1, scrm, scrm2, scrm-D and suppressors)", "assay": "Stomatal development bioassay in mutant seedlings, liquid culture", "assay_type": "in vivo", "conditions": "50 μM; for meristemoids density: single seedlings n=8 (Fig. 3c)", "method": "Arabidopsis accession Columbia (Col-0) was used as wild-type. […] Their genotype and transcript reduction were confirmed. The presence of transgenes/mutant alleles were confirmed by genotyping. For liquid culture with Stomidazolone (AYSJ929, compound 3), the analogs (AYSJ1059 (compound 5) and AYSJ1061 (compound 6)), degraded compound lzx103 (compound 4), and SIM3* (compound 7), all compounds were dissolved in dimethyl sulfoxide (DMSO, Molecular biology grade, Fujifilm Wako, Japan 046-21981), Col-0 seeds were sown in 96-well plates (TL5003; True Line) containing 95 μL of 1/2 MS media containing 0.5% sucrose with rotary shaking at 140 rpm under continuous light at 22 °C. Five μL of compounds were dissolved in DMSO at 10 mM and diluted with liquid 1/2 MS media to 1 mM and added on 1-day-old seedlings (final concentration, 50 μM). Seedlings were incubated for 8 days, and at day 9 seedling abaxial cotyledons were observed through confocal microscopy. For liquid culture of scrm-D_S343 and scrm-D_S423, 1/2 MS liquid media without sucrose was used. For the solid culture, 0, 20, 50 or 100 μM Stomidazolone were solidified with low-melting agarose (5805S, PrimeGelTM Agarose LMT 1-20 K, TAKARA Bio). Briefly, 1/2 MS salt, 0.5% sucrose, and 0.8% low melting agarose were mixed in water and autoclaved. After cooling the medium at around 30 °C, Stomidazolone (500x, dissolved in DMSO) was added and poured into 90 mm petri dishes (Asnol Petri Dish JP φ90 x 15 mm, 3-1491-01, AS ONE). Col-0 seeds were sown on Stomidazolone-containing 1/2 MS agarose media and grown under continuous light for 9 days.\nFor confocal microscopy, cell peripheries of seedlings were visualized with propidium iodide (Sigma, P4170). Images were acquired using LSM800 or LSM700 (Zeiss) using a 20x lens. The GFP, YFP reporter and PI signals were detected with excitation at 488 nm and an emission filter of 410 to 546 nm, at 488 nm and an emission filter of 410 to 546 nm, and with excitation at 561 nm and 582–617 nm emission range, respectively. Raw data were collected with 1024 × 1024 pixel images. For qualitative image presentation, Adobe Photoshop CC was used to trim and uniformly adjust the contrast/brightness.\nFor quantitative analysis of the abaxial leaf epidermis, confocal images were taken on the days after germination as indicated in the Figure legends. Preparation of images was done as described previously[32],[70]. For counting epidermal cell types, stomatal density, stomatal precursor cells (meristemoids), total stomata-lineage cells (stomata and meristemoids) were calculated by counting cell types in an area of 0.4 mm^2 (0.63 mm × 0.63 mm) and plotted as per mm^2. A series of Z-stack confocal images was obtained to obtain images covering the epidermis and capturing GFP/YFP signal from the reporter lines. The area and the number of epidermal cells were quantified by using FIJI-ImageJ. Statistical analyses were performed using R ver. 4.0.2. Sample sizes (n) are indicated and defined in each legend. For the multiple sample comparison, 1-way ANOVA was performed followed by a post hoc Tukey HSD test. For the two-sample comparison, Student’s T-test was performed. Graphs were generated using R ggplot2 package. For all boxplots, each box represents IQR (interquartile range), in which top, middle line, and bottom indicating 75, 50, and 25 percentiles, respectively, and the bar representing maximum to minimal values. Each magenta dot represents jittered individual data point. The datapoints that go beyond the bar are outliers, which are indicated as black dots. If the data point is greater than Q3 + 1.5*IQR (above the third quartile is greater than 1.5 times of the interquartile range) or less than Q1 − 1.5*IQR, that data point is classified as outlier. The color of Boxplot graph was based on ColorBrewer.org. The value of n, the number of each experiment or samples, the means of error bars, and how statistical significance was defined are indicated in a relevant figure legend. […]"}, "[3]": {"conditions": "er erl1, single seedlings n=8 (Fig. 4f)"}, "[4]": {"conditions": "scrm-D_S343, single seedlings n=8 (Fig. 5n)"}}, "note": "Values joined by “and” are separate entries in the source; they are usually repeats but may differ in a detail not shown here. Identical values can stand only once. “Also recorded” adds a separate entry of the source.", "data": [{"smiles": "O=C1C(c2ccccc2)=NC(NS(=O)(=O)c2ccccc2)(c2ccccc2)N1S(=O)(=O)c1ccccc1", "note": "(centres unmarked) [Stomidazolone]", "values": [{"measurement": "effect on stomatal movement (in words)", "setting": "[1]", "result": "did not exhibit any discernable effects; also recorded: does not affect"}, {"measurement": "effect on epidermal phenotype (in words)", "setting": "[2]; er (er-105)", "result": "the number of stomata drastically decreased and the meristemoids vastly increased"}, {"measurement": "effect on epidermal phenotype (in words)", "setting": "[2]; er erl1", "result": "did not reduce the number of stomata, although it increased the number of meristemoids"}, {"measurement": "Stomata density", "setting": "[2]; [3]", "result": "204 per mm2 and 275 per mm2 and 292 per mm2"}, {"measurement": "Total (stomata+meristemoid) density", "setting": "[2]; [3]", "result": "382 per mm2 and 272 per mm2 and 360 per mm2 and 323 per mm2 and 292 per mm2 and 347 per mm2 and 369 per mm2"}, {"measurement": "effect on epidermal phenotype (in words)", "setting": "[2]; er erl1 erl2", "result": "insensitive"}, {"measurement": "Meristemoid density", "setting": "[2]; er erl1 erl2, single seedlings n=8 (Fig. 4j, replotted 4k)", "result": 0, "unit": "per mm2"}, {"measurement": "effect on epidermal phenotype (in words)", "setting": "[2]; er erl2", "result": "The number of arrested meristemoids is even more increased"}, {"measurement": "effect on epidermal phenotype (in words)", "setting": "[2]; fama", "result": "significantly reduced the number of fama tumors whereas increasing the number of arrested meristemoids"}, {"measurement": "effect on epidermal phenotype (in words)", "setting": "[2]; hdg2", "result": "increased the meristemoid numbers of hdg2 epidermis while the total numbers of stomata and meristemoids were unaffected"}, {"measurement": "Total (stomata+meristemoid) density", "setting": "[2]; hdg2 (hdg2-2), single seedlings n=8 (Fig. 4m)", "result": "149 per mm2 and 112 per mm2 and 171 per mm2 and 93 per mm2 and 137 per mm2 and 107 per mm2 and 141 per mm2"}, {"measurement": "effect on epidermal phenotype (in words)", "setting": "[2]; hdg2 atml1", "result": "hypersensitivity"}, {"measurement": "Total (stomata+meristemoid) density", "setting": "[2]; hdg2 atml1 (hdg2-2 atml1-3), single seedlings n=8 (Fig. 4o)", "result": "92 per mm2 and 141 per mm2 and 156 per mm2 and 153 per mm2 and 112 per mm2 and 109 per mm2"}, {"measurement": "effect on epidermal phenotype (in words)", "setting": "[2]; mute", "result": "not enhanced"}, {"measurement": "meristemoids density", "setting": "[2]; mute (mute-1)", "result": "296 per 1 mm2 and 243 per 1 mm2 and 204 per 1 mm2 and 289 per 1 mm2 and 350 per 1 mm2 and 267 per 1 mm2 and 187 per 1 mm2"}, {"measurement": "effect on epidermal phenotype (in words)", "setting": "[2]; scrm2-1", "result": "reduction of the number of stomata with meristemoid arrests"}, {"measurement": "Stomatal index SI (%)", "setting": "[2]; scrm2-1, single seedlings n=8 (Fig. 5f)", "result": "25.2% and 23.5% and 22.4% and 18.0% and 27.0% and 24.1% and 26.7% and 15.5%"}, {"measurement": "effect on epidermal phenotype (in words)", "setting": "[2]; scrm (ice1-2)", "result": "severely reduced stomatal lineage initiation"}, {"measurement": "effect on epidermal phenotype (in words)", "setting": "[2]; scrm scrm2-1", "result": "no effects"}, {"measurement": "Stomatal index SI (%)", "setting": "[2]; scrm scrm2-1, single seedlings n=7 (Fig. 5h)", "result": 0, "unit": "%"}, {"measurement": "effect on epidermal phenotype (in words)", "setting": "[2]; scrm-D", "result": "not affected"}, {"measurement": "Stomatal index SI (%)", "setting": "[2]; scrm-D, single seedlings n=8 (Fig. 5j)", "result": "100.0% and 99.0% and 98.0%"}, {"measurement": "SI (%)", "setting": "[2]; [4]", "result": "10.3% and 14.9% and 8.1% and 11.9% and 12.8% and 12.5% and 9.6% and 12.1%"}, {"measurement": "small cells index (%)", "setting": "[2]; [4]", "result": "31.8% and 53.1% and 60.4% and 54.1% and 50.8% and 47.7% and 36.1%"}, {"measurement": "effect on epidermal phenotype (in words)", "setting": "[2]; scrm-D_S343 and scrm-D_S423", "result": "triggered excessive formation of arrested meristemoids"}, {"measurement": "effect on epidermal phenotype (in words)", "setting": "[2]; scrm-D_S343 scrm2-1 and scrm-D_S423 scrm2-1", "result": "insensitivity"}, {"measurement": "SI (%)", "setting": "[2]; scrm-D_S423, single seedlings n=8 (Fig. 5p)", "result": "0.7% and 1.2% and 0.0% and 1.4% and 3.0%"}, {"measurement": "effect on epidermal phenotype (in words)", "setting": "[2]; spch", "result": "no effects"}, {"measurement": "meristemoids density", "setting": "[2]; spch (spch-3)", "result": 0, "unit": "per 1 mm2"}]}]}
